These results are taken from patent EP4579344A1, “THIOALKYLCOUMARIN PHOTOSENSITIZERS FOR PHOTOPOLYMERIZATION” (IGM Group B.V., priority 2023, dated 2025).

Each structure is given as a SMILES string.

Data set [1] can be described thus: Fluorescence emission peak wavelength. The data set is classed as physicochemical. The conditions noted are these: dilute solution (A ~0.1) in acetonitrile; excitation at absorption maximum. The protocol:
Fluorescence emission peak wavelength: Fluorescence spectra of the photosensitizers were recorded using a Horiba Jobin Yvon Fluoromax4 spectrofluorometer. The measurement for each photosensitizer was taken in a dilute solution (A ~0.1) of spectroscopic grade acetonitrile, using 1 cm path cell. The excitation wavelength was set at the maximum of absorption of the photosensitizer.

Data set [2] is described as follows: Maximum absorption peak wavelength. The following applies: spectroscopic grade acetonitrile; maximum between 300 nm and 450 nm. The class given is physicochemical. The protocol: Maximum absorption peak wavelength: Absorption spectra have been recorded using an AnalytikJena S600 spectrophotometer. On a microbalance, the photosensitizer was weighted with a 10^-6 g precision in a DSC crucible. The crucible and its content was transferred in volumetric flask, then filled with spectroscopic grade acetonitrile. The reference was taken for the empty spectrometer, and two series of spectra were recorded for each solution, in a 1 cm path and in a 1 mm path cells. The spectra of the solvent was taken separately in both cell and then subtracted to solutions spectra. The absorption maxima value is taken where the absorption spectra reaches its maximum in the region between (300 nm and 450 nm)

In the case of `CCCCC(CC)CSc1ccc2cc(-c3ccccc3)c(=O)oc2c1` (stereo not drawn) [S2], the “λ^fluo max” value in data set [1] is given as 411 nm. Besides, in data set [2], the “λ^abs max” value stood at 352 nm.
As for `CCSc1ccc(-c2cc3ccc(SCC)cc3oc2=O)cc1` [S3], in data set [1], the “λ^fluo max” value is given as 439 nm. The “λ^abs max” value in data set [2] was 347 nm.
On the same counts, the results for `Cc1cc(=O)oc2cc(SCCO)ccc12` [S5] are 396 nm and 330 nm.
On the same counts, the results for `CCN(CC)c1ccc2c(C)cc(=O)oc2c1` [S8, 7-diethylamino-4-methylcoumarin, reference compound] are 434 nm and 370 nm.
For the compound `CSc1ccc2cc(-c3nc4ccccc4n3C)c(=O)oc2c1` [S7], the “λ^fluo max” value in data set [1] is on record as 476 nm. In data set [2], the “λ^abs max” value is given as 362 nm.
On to `CN(C)CCSc1ccc2cc(-c3ccccc3)c(=O)oc2c1` [S4], for which the “λ^fluo max” value in data set [1] came to 435 nm. Also, in data set [2], the “λ^abs max” value amounted to 351 nm.
As to `CCSc1ccc2ccc(=O)oc2c1` [S9], in data set [1], the “λ^fluo max” value was 406 nm. For the same compound, the “λ^abs max” value in data set [2] is on record as 323 nm.
For `CCSc1ccc2cc(-c3ccccc3)c(=O)oc2c1` [S1], in data set [1], the “λ^fluo max” value worked out at 440 nm. In addition, the “λ^abs max” value in data set [2] was determined as 345 nm.
Regarding `Cc1c(-c2ccccc2)c(=O)oc2cc(SCCO)ccc12` [S6], the “λ^fluo max” value in data set [1] is listed as 424 nm. For the same compound, in data set [2], the “λ^abs max” value is 335 nm.
